Test results taken from patent US20180250314A1, “Skin Treatment System” (priority 2017, published 2018).

Test system: keratosis pilaris
Experiment: In-vivo study, patients with keratosis pilaris
Details: topical use; arms, buttocks, thighs, and cheeks
Source text: During use of the skin treatment formulations, the glycolic acid is configured to react with the top layer of skin, i.e., the stratum corneum, by breaking it down while dissolving sebum and other substances that bind dead tissue together. The dead skin cells produced when exposed to the glycolic acid may then be sloughed off with gentle exfoliation, which clears blocked pores and opens comedones to reveal smoother, brighter, younger-looking skin.

With `O=C(O)CO` [glycolic acid] as the molecule, how does the “skin appearance in keratosis pilaris patients” value read?
The value was “clearer and smoother skin”.
